Assay results taken from PubChem BioAssay AID2060908 (Molecular Pharmacology Branch, DTP, NCI, 2025).

Test system: 186277-243-T-J2-PDC complex spheroids, viability
Assay: Anticancer human tumor 186277-243-T-J2-PDC patient-derived colon adenocarcinoma cell line growth inhibition [RAS]
Conditions: for IC50: curve of first compound; for viability, T/C: stronger effect = lower value
Method in brief: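 Tumour cells grown as complex spheroids with HUVEC endothelial cells and mesenchymal stem cells, treated with RAS pathway inhibitor combinations. Each agent spans half-log steps from near clinical Cmax, or 10 microM where Cmax is unknown.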
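Note: spheroids exposed to compounds for 7 days before viability read.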

CC(=O)OC12COC1CC(O)C1(C)C(=O)C(O)C3=C(C)C(OC(=O)C(O)C(NC(=O)OC(C)(C)C)c4ccccc4)CC(O)(C(OC(=O)c4ccccc4)C21)C3(C)C (centres undefined) + CCn1c(-c2cccnc2C(C)OC)c2c3cc(ccc31)N1CCOC(CC(NC(=O)C(C(C)C)N(C)C(=O)C3(F)CCN(C(=O)C#CC(C)(C)N(C)C)CC3)C(=O)N3CCCC(N3)C(=O)OCC(C)(C)C2)C1
IC50 (second compound 0.000949 µM): < 31.6 nM
IC50 (second compound 0.003 µM): < 31.6 nM
IC50 (second compound 0.00949 µM): < 31.6 nM
IC50 (second compound 0.03 µM): < 31.6 nM
IC50 (second compound 0.0949 µM): < 31.6 nM
IC50 (second compound 0.3 µM): < 31.6 nM
viability, T/C (second compound 0.000949 µM, first compound 0.0316 µM): 6.09%
viability, T/C (second compound 0.000949 µM, first compound 0.1 µM): 4.29%
viability, T/C (second compound 0.000949 µM, first compound 0.316 µM): 4.45%
viability, T/C (second compound 0.000949 µM, first compound 1 µM): 5%
viability, T/C (second compound 0.000949 µM, first compound 3.16 µM): 4.34%
viability, T/C (second compound 0.000949 µM, first compound 10 µM): 4.13%
viability, T/C (second compound 0.003 µM, first compound 0.0316 µM): 6%
viability, T/C (second compound 0.003 µM, first compound 0.1 µM): 5.13%
viability, T/C (second compound 0.003 µM, first compound 0.316 µM): 5.03%
viability, T/C (second compound 0.003 µM, first compound 1 µM): 4.41%
viability, T/C (second compound 0.003 µM, first compound 3.16 µM): 4.14%
viability, T/C (second compound 0.003 µM, first compound 10 µM): 4.35%
viability, T/C (second compound 0.00949 µM, first compound 0.0316 µM): 6.17%
viability, T/C (second compound 0.00949 µM, first compound 0.1 µM): 4.96%
viability, T/C (second compound 0.00949 µM, first compound 0.316 µM): 4.57%
viability, T/C (second compound 0.00949 µM, first compound 1 µM): 4.98%
viability, T/C (second compound 0.00949 µM, first compound 3.16 µM): 4.48%
viability, T/C (second compound 0.00949 µM, first compound 10 µM): 3.96%
viability, T/C (second compound 0.03 µM, first compound 0.0316 µM): 5.87%
viability, T/C (second compound 0.03 µM, first compound 0.1 µM): 4.93%
viability, T/C (second compound 0.03 µM, first compound 0.316 µM): 4.72%
viability, T/C (second compound 0.03 µM, first compound 1 µM): 3.83%
viability, T/C (second compound 0.03 µM, first compound 3.16 µM): 4.63%
viability, T/C (second compound 0.03 µM, first compound 10 µM): 4.2%
viability, T/C (second compound 0.0949 µM, first compound 0.0316 µM): 5.78%
viability, T/C (second compound 0.0949 µM, first compound 0.1 µM): 4.53%
viability, T/C (second compound 0.0949 µM, first compound 0.316 µM): 4.78%
viability, T/C (second compound 0.0949 µM, first compound 1 µM): 4.23%
viability, T/C (second compound 0.0949 µM, first compound 3.16 µM): 4.24%
viability, T/C (second compound 0.0949 µM, first compound 10 µM): 4.22%
viability, T/C (second compound 0.3 µM, first compound 0.0316 µM): 4.84%
viability, T/C (second compound 0.3 µM, first compound 0.1 µM): 3.52%
viability, T/C (second compound 0.3 µM, first compound 0.316 µM): 3.6%
viability, T/C (second compound 0.3 µM, first compound 1 µM): 3.55%
viability, T/C (second compound 0.3 µM, first compound 3.16 µM): 3.32%
viability, T/C (second compound 0.3 µM, first compound 10 µM): 3.72%

CCc1c2c(nc3ccc(O)cc13)-c1cc3c(c(=O)n1C2)COC(=O)[C@]3(O)CC + CCn1c(-c2cccnc2C(C)OC)c2c3cc(ccc31)N1CCOC(CC(NC(=O)C(C(C)C)N(C)C(=O)C3(F)CCN(C(=O)C#CC(C)(C)N(C)C)CC3)C(=O)N3CCCC(N3)C(=O)OCC(C)(C)C2)C1
IC50 (second compound 0.000949 µM): 9.82 nM
IC50 (second compound 0.003 µM): 13.6 nM
IC50 (second compound 0.00949 µM): 11.1 nM
IC50 (second compound 0.03 µM): 10.2 nM
IC50 (second compound 0.0949 µM): 7.53 nM
IC50 (second compound 0.3 µM): 2.85 nM
viability, T/C (second compound 0.000949 µM, first compound 0.000949 µM): 157%
viability, T/C (second compound 0.000949 µM, first compound 0.003 µM): 83.7%
viability, T/C (second compound 0.000949 µM, first compound 0.00949 µM): 52.5%
viability, T/C (second compound 0.000949 µM, first compound 0.03 µM): 35.5%
viability, T/C (second compound 0.000949 µM, first compound 0.0949 µM): 17.3%
viability, T/C (second compound 0.000949 µM, first compound 0.3 µM): 12.1%
viability, T/C (second compound 0.003 µM, first compound 0.000949 µM): 142%
viability, T/C (second compound 0.003 µM, first compound 0.003 µM): 91.9%
viability, T/C (second compound 0.003 µM, first compound 0.00949 µM): 55.8%
viability, T/C (second compound 0.003 µM, first compound 0.03 µM): 37.4%
viability, T/C (second compound 0.003 µM, first compound 0.0949 µM): 18.2%
viability, T/C (second compound 0.003 µM, first compound 0.3 µM): 12.9%
viability, T/C (second compound 0.00949 µM, first compound 0.000949 µM): 142%
viability, T/C (second compound 0.00949 µM, first compound 0.003 µM): 85.4%
viability, T/C (second compound 0.00949 µM, first compound 0.00949 µM): 53.8%
viability, T/C (second compound 0.00949 µM, first compound 0.03 µM): 34.4%
viability, T/C (second compound 0.00949 µM, first compound 0.0949 µM): 15.9%
viability, T/C (second compound 0.00949 µM, first compound 0.3 µM): 12.1%
viability, T/C (second compound 0.03 µM, first compound 0.000949 µM): 139%
viability, T/C (second compound 0.03 µM, first compound 0.003 µM): 80.6%
viability, T/C (second compound 0.03 µM, first compound 0.00949 µM): 54.1%
viability, T/C (second compound 0.03 µM, first compound 0.03 µM): 33%
viability, T/C (second compound 0.03 µM, first compound 0.0949 µM): 17%
viability, T/C (second compound 0.03 µM, first compound 0.3 µM): 12.2%
viability, T/C (second compound 0.0949 µM, first compound 0.000949 µM): 102%
viability, T/C (second compound 0.0949 µM, first compound 0.003 µM): 68.6%
viability, T/C (second compound 0.0949 µM, first compound 0.00949 µM): 48%
viability, T/C (second compound 0.0949 µM, first compound 0.03 µM): 25%
viability, T/C (second compound 0.0949 µM, first compound 0.0949 µM): 15.1%
viability, T/C (second compound 0.0949 µM, first compound 0.3 µM): 10.3%
viability, T/C (second compound 0.3 µM, first compound 0.000949 µM): 69.7%
viability, T/C (second compound 0.3 µM, first compound 0.003 µM): 47.5%
viability, T/C (second compound 0.3 µM, first compound 0.00949 µM): 34%
viability, T/C (second compound 0.3 µM, first compound 0.03 µM): 17.7%
viability, T/C (second compound 0.3 µM, first compound 0.0949 µM): 10.5%
viability, T/C (second compound 0.3 µM, first compound 0.3 µM): 8.49%
